# Source: patent US20070093539A1, “N-hydroxy-4-(3-pheyl-5-methyl-isoxazole-4-yl)-benzenesulfonate solvates” (priority 2003, published 2007)
# Columns and labels:
# [1] = tested on: carrageenan induced inflammatory hyperalgesia; assay: Carrageenan induced inflammatory hyperalgesia (Randall-Selitto), acute model; assay type: in vivo, male SPRD rats; settings: Acut model, 10 mg/kg p.o.
# Experimental: (§1) Edema was induced by injection of Carrageenan (CA) into plantar surface of right hind paw. Male SPRD rats (weighing 140-190 g) were used n=6-8/group). Then the mechanical pain threshold of the inflamed hind paw was determined with an analgesimeter ((Ugo Basile, type: 37215).
# (§2) This assay monitors the decrease of the pain threshold, and the time depending changing of the pain by mechanical pain stimulus. Analgesics can increase the pain threshold of the inflamed hinds and this effect is in terms of percentage of reversal.
# (§3) Untreated right hind paw was compressed with a progressively increasing pressure. The pressure was recorded (in grams) when the animal first vocalized or made a vigorous attempt to remove the paw. It was determined to baseline threshold of the untreated paw. (average: 80-110 g). After it the animals were treated with carrageenan. After the treatment the edema and the threshold were checked in a given times. […] (Average of inflammation induced pain threshold was 20-25 g, this means 65-80% decrease related to the baseline.)
# 1 hour after the CA injection (100 μl of 2% solution) the animals were treated with test compounds and valdecoxib (10-10 mg/kg p.o.). […]
# (§4) The chronic phase of the inflammantion and the decreasing of the threshold were induced by higher dose of CA. Inflammation induced threshold decreasing was measured 24 hours after the CA injection (150 μl of 2% solution). ) After it the animals were treated with test compounds and valdecoxib (30-30 mg/kg p.o.). Change in the threshold was checked at 1 h, 2 h, and 3 h following drug administration. In both model used control groups were treated orally only with solvents at the time of treatments. In both protocol the effects of the test compounds were calculated in percentage reversal of mechanical hiperalgesia: [formula] • T3h: In acute model, the threshold in the control group at 3 h after the CA injection (in gram) • T24h: In chronic model, the threshold in the control group at 24 h after the CA injection (in gram) • T0h: The threshold before the CA injection (in gram) • TXh In acute model, at 3h after the CA injection • TXh=In chronic model, at 25 h, 26 h, 27 h after the CA injection
# [2] = tested on: carrageenan induced inflammatory hyperalgesia; assay: Carrageenan induced inflammatory hyperalgesia (Randall-Selitto), chronic model; assay type: in vivo, male SPRD rats; settings: 30 mg/kg p.o.
# Experimental: as §1, §2, §3, §4
# [3] = target: T1, sheep COX-1 (Ovis aries, UniProt P05979); assay: spectrophotometric TMPD assay, COX-1; assay type: biochemical; settings: 15 min preincubation at 25° C., read-out: Sheep COX-1 IC50 (μM) ± S.E.M.
# T1 construct: purchased Cayman Chemical, Ann Arbor, USA 60100
# T1 sequence (P05979 25-600): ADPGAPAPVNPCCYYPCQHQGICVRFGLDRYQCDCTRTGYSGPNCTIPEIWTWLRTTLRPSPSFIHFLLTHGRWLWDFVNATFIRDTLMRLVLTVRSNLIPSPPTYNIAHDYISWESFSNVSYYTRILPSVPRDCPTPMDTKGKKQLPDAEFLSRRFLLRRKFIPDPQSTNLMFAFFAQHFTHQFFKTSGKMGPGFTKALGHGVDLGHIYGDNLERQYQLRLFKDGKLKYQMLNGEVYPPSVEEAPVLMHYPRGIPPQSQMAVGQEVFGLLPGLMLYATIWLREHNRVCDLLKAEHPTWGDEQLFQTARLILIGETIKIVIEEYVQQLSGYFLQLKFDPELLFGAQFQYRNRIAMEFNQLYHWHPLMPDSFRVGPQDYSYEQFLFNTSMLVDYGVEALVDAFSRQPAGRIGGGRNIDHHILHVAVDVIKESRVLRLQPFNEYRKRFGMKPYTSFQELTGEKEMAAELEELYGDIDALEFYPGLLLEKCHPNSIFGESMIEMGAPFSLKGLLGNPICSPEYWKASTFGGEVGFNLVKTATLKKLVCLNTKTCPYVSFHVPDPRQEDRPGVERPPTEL
# Experimental: (§5) The Human recombinant COX-2 and sheep COX-1 activity were determined by spectrophotometric TMPD assay (K. Gierse, S. D. Hauser, D. P. Creely, C. M. Koboldt, S. H. Rangwala, P. C. Isakson and K. Seibert: Expression and selective inhibition of the constitutive and inducible forms of human cyclo-oxygenase Biochem. J. 305: 479-484 (1995)).
# (§6) The Human recombinant COX-2 and sheep COX-1 activity were measured by spectrophotometric assay based on oxidation of N,N,N′,N′,-tetramethyl-p-phenylenediamine (TMPD). During the reduction of the prostaglandine G2 (PGG2) to prostaglandine endoperoxid H2 (PGH2), the TMPD is being oxidated to a colour product, which can be measured by spectrophotometer at 610 nm.
# (§7) 4 μl of solution of inhibitors in different concentrations was added to the 156 μl of reaction mixture (100 mM sodium phosphate buffer, pH:6.5, 1 μM hematin, 1 mg/ml gelatine). Afterwards 20 μl solution of 50 unit human recombinant COX-2 enzym or 20 μl of 50 unit sheep COX-1 enzym (Cayman Chemical, Ann Arbor, USA, cat no.: 60122/COX-2/, cat. no.: 60100/COX-1/) was added. The incubation mixture: was preincubated for 15 minutes at 25° C. in a spectrophotometric 96-well plate reader (Labsystem iEMS Reader MF). Following this, the mixture of 20 μl 1 mM arachidonic acid and 1 mM TMPD solution were added. It was shaken for 10 second and the absorbance was measured at 610 nm.
# [4] = target: T2, Human recombinant COX-2 (Homo sapiens, UniProt P35354); assay: spectrophotometric TMPD assay, COX-2; assay type: biochemical; settings: 15 min preincubation at 25° C., read-out: Human recombinant COX-2 IC50 (μM) ± S.E.M.
# T2 construct: purchased Cayman Chemical, Ann Arbor, USA 60122
# T2 sequence (P35354 18-604): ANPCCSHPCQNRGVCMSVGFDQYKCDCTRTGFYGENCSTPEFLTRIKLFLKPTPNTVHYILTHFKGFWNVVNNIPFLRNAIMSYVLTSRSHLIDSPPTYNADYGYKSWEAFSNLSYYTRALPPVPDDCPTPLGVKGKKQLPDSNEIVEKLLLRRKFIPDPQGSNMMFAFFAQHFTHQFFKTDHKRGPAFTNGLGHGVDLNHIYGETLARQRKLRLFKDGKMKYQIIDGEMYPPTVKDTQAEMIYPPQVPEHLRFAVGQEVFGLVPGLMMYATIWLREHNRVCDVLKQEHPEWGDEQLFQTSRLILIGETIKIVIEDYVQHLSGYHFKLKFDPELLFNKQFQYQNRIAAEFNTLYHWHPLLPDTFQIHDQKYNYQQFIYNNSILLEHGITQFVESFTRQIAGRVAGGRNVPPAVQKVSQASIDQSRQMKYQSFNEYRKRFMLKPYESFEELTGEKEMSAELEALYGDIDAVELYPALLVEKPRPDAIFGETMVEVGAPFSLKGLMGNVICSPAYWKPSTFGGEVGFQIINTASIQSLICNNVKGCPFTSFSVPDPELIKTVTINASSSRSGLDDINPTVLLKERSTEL
# Experimental: as §5, §6, §7
substance,measurement,setting,value
N-hydroxi-4-(3-phenyl-5-methyl-isoxazole-4-yl)-benzenesulfonamide monohydrate [example 1],Analgesic effect in % after p.o. treatment,[1]; 2 hours,64.6%
same,Analgesic effect in % after p.o. treatment,[1]; 3 hours,40.7%
same,Analgesic effect in % after p.o. treatment,[1]; 4 hours,12.3%
same,Analgesic effect in % after p.o. treatment,[2]; 1 hour,57.8%
same,Analgesic effect in % after p.o. treatment,[2]; 2 hours,63.9%
same,Analgesic effect in % after p.o. treatment,[2]; 3 hours,42.0%
same,IC50,[3],101 ± 12.5 µM
same,IC50,[4],1.1 ± 0.3 µM
